The values below are quoted from earlier work in patent publication US10751291B2, “Nanoparticulate compositions comprising interferon gamma and losartan for immunotherapy” (Yale University, priority 2013, dated 2020).

The conditions of this series: oral administration.

The structures appear in SMILES notation.

On to `CCCCc1nc(Cl)c(CO)n1Cc1ccc(-c2ccccc2-c2nn[nH]n2)cc1` [Losartan], for which the oral absorption entry is given as “well absorbed”.
